Entries after “also recorded” stand apart in the source; their conditions may differ.
Key:
Assay type in all cases: cell-based
Hepatitis B Virus (HBV) = experiment: Antiviral activity against HBV in the HBV producer cell line HepG2 2.2.15 (Dane particle DNA and intracellular replicative intermediates); conditions: for anti-HBV activity: general statement in the description, no concentration given
Method: The human HBV producer cell line of HepG2, 2.2 15, described and characterised by Sells et al., PNAS 84:1005, 1987 and J. Virol. […] This cell line was utilised in vitro to identify compounds with anti-HBV activity.
To test compounds for antiviral activity, monolayer cultures were treated with compound, 50-200 µM, for ten days. Supernatant media containing extracellular virion DNA (Dane particles), were harvested on days three, six and ten, treated with proteinase K(1 mg/mL) and sodium dodecyl sulfate (1%), and incubated at 50 °C for one hour. DNA was extracted with equal volumes of phenol followed by chloroform and then precipitated by ammonium acetate and propanol. The DNA precipitate was dissolved and collected on nitrocellulose using the procedure of Schieicher and Schuell (S & S, 10 Optical Ave., Keene, NH 03431, Publication #700, 1987), and treated as described by Southern, J. Mol. Biol. 98:503, 1975. Cells were harvested, and the intracellular DNA was obtained after cell lysis with guanidine isothiocyanate. The intracellular DNA was handled in the same manner as the extracellular DNA. After precipitation by ammonium acetate and propanol, the intracellular DNA precipitate was dissolved, cut by restriction endonuclease, Hind III, applied to agarose gel and then treated as described by Southern to determine the quantity of replicative intermediate forms. The antiviral effect of the drug was determined by measuring at least a 100-fold reduction of the amount of Dane particles extruded into the culture and a similar decrease in the intracellular replicative intermediates.

HIV = experiment: Activity against HIV infections (general statement, no method given at that place); conditions: general statement in the description
HIV-2 = experiment: Anti-HIV activity by the method of Averett (J.Virol.Methods 23, 263-276); conditions: against HIV-2; n=6; read-out: average IC₅₀
Method: (§1) Anti-HIV activity was determined by the method of Averett, D.R., J.Virol.Methods, 23 263-276 (1989).

HIV-1 = experiment: as above; conditions: against HIV-1; n=7; read-out: average IC₅₀
Method: as §1

Question: Which anti-HBV activity (Hepatitis B Virus (HBV)) does the source give for `CCCOc1nc(N)nc2c1ncn2[C@H]1CC[C@@H](CO)O1` [Compound 9, 2-Amino-6-n-propoxypurine-9-β-D-2′,3′-dideoxyribofuranoside] here?
Answer: surprisingly high

Question: `Nc1nc(NC2CC2)c2ncn([C@H]3CC[C@@H](CO)O3)c2n1` [Compound 34, 2-Amino-6-cyclopropylaminopurine-9-β-D-2,′3′-dideoxyribofuranoside] was tested. Which anti-HBV activity (Hepatitis B Virus (HBV)) did it give?
Answer: surprisingly high

Question: For `Nc1nc(NCC2CC2)c2ncn([C@H]3CC[C@@H](CO)O3)c2n1` [Example 42, 2-Amino-6-(cyclopropylmethylamino)purine-9-β-D-2′,3′-dideoxy ribofuranoside], which “activity against HIV infections” value (HIV) is on record?
Answer: exceptionally potent activity

Question: What about the IC50 (HIV-2) of the same compound?
Answer: 13.3 µM

Question: And the IC50 (HIV-1)?
Answer: 17.7 µM

Question: And the “inhibition of HBV” value (Hepatitis B Virus (HBV); at 100 µM, monolayer cultures treated for ten days)?
Answer: strong inhibition

Question: What about the anti-HBV activity (Hepatitis B Virus (HBV); listed as Compound 41) of the same compound?
Answer: surprisingly high; also recorded: exceptionally potent activity

Source: patent EP0421819A1, “Therapeutic nucleosides” (THE WELLCOME FOUNDATION LIMITED, priority 1989, dated 1991)
